This passage reports IC50 results from patent US10961236B2, “(S)-2-(1-cyclopropylethyl)-5-(4-methyl-2-((6-(2-oxopyrrolidin-1-yl)pyridin-2-yl)amino) thiazol-5-yl)-7-(methylsulfonyl)isoindolin-1-one as a phosphatidylinositol 3-kinase inhibitor” (AstraZeneca AB, priority 2016, dated 2021).

Common to all, as to type: biochemical
The target of test [1] is recombinant human PI3Kδ (6-His(p110-p85α)) (Homo sapiens (Human), UniProt O00329). The test can be described thus: Enzymatic activity assay for recombinant human PI3Kδ (ADP-Glo). The note with it: 0.6 nM PI3Kδ, 20 μM ATP, 80 μM DiC8-PIP2, ADP-Glo. In short, it runs like this:
(§1)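 ADP-Glo luminescence after DiC8-PIP2 (80 μM) phosphorylation with 20 μM ATP in 50 mM Tris pH 7.4, 3 mM MgCl2, 2.1 mM DTT, 0.05% CHAPS at room temperature. Enzyme 1.2 nM PI3Kγ or 0.6 nM PI3Kδ; inhibitors pre-incubated 15 min, then 60 min reaction.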

Test [2] addresses recombinant human PI3Kβ (6-His(p110-p85α)) (Homo sapiens (Human), UniProt P42338). The test can be described thus: Enzymatic activity assay for recombinant human PI3Kβ (ADP-Glo). The note with it: 1.2 nM PI3Kβ, 20 μM ATP, 80 μM DiC8-PIP2, ADP-Glo. An outline of the steps:
(§2)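 ADP-Glo luminescence after DiC8-PIP2 phosphorylation at RT: 80 μM lipid substrate, 20 μM ATP, 1.2 nM enzyme (0.6 nM for δ) in Tris pH 7.4 with MgCl2, DTT, CHAPS. Compounds pre-incubated 15 min with enzyme, then 60 min reaction; DMSO ≤1%.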
In general terms: ADP-Glo turns the ADP formed in a reaction into a luminescent signal.

The target in test [3] is recombinant human PI3Kγ ((aa144-1102)-6His) (Homo sapiens (Human), UniProt P48736). The test can be described thus: Enzymatic activity assay for recombinant human PI3Kγ (ADP-Glo). The note with it: 1.2 nM PI3Kγ, 20 μM ATP, 80 μM DiC8-PIP2, ADP-Glo. An outline of the steps:
as §1

Test [4] has as its target recombinant human PI3Kα (6-His(p110-p85α)) (Homo sapiens (Human), UniProt P42336). As to the kind of experiment: Enzymatic activity assay for recombinant human PI3Kα (ADP-Glo). The note with it: 1.2 nM PI3Kα, 20 μM ATP, 80 μM DiC8-PIP2, ADP-Glo. An outline of the steps: as §2

Chain of recombinant human PI3Kα (6-His(p110-p85α)) (P42336 whole entry): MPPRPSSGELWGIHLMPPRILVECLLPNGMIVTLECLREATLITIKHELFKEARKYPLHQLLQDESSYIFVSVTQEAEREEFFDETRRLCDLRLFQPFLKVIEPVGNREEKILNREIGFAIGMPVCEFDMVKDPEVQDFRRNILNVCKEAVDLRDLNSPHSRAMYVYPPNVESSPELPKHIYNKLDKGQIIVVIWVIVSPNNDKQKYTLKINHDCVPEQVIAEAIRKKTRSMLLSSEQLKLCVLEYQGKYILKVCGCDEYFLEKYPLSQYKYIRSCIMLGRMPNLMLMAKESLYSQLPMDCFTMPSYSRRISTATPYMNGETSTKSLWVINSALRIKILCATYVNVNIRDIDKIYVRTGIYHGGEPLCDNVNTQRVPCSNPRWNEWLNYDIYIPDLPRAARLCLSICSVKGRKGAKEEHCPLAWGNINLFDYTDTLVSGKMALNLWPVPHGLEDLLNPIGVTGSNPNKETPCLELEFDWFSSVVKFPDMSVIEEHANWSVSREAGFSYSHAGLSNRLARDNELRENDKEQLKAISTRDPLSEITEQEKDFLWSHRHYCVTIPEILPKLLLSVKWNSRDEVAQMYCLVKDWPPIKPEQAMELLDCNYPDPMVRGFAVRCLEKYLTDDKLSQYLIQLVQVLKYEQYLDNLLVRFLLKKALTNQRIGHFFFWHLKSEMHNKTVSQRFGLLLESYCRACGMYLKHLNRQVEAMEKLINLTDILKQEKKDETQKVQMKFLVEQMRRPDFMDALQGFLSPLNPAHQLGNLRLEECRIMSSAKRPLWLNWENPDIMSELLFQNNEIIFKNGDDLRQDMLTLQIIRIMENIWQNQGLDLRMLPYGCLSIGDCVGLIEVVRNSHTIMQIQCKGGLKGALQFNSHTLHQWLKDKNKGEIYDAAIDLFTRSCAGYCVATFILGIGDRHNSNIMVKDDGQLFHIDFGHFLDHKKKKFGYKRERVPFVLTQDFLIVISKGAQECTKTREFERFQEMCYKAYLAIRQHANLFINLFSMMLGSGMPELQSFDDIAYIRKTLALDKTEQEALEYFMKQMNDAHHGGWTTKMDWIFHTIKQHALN
Chain of recombinant human PI3Kα (6-His(p110-p85α)) (P27986 whole entry partner): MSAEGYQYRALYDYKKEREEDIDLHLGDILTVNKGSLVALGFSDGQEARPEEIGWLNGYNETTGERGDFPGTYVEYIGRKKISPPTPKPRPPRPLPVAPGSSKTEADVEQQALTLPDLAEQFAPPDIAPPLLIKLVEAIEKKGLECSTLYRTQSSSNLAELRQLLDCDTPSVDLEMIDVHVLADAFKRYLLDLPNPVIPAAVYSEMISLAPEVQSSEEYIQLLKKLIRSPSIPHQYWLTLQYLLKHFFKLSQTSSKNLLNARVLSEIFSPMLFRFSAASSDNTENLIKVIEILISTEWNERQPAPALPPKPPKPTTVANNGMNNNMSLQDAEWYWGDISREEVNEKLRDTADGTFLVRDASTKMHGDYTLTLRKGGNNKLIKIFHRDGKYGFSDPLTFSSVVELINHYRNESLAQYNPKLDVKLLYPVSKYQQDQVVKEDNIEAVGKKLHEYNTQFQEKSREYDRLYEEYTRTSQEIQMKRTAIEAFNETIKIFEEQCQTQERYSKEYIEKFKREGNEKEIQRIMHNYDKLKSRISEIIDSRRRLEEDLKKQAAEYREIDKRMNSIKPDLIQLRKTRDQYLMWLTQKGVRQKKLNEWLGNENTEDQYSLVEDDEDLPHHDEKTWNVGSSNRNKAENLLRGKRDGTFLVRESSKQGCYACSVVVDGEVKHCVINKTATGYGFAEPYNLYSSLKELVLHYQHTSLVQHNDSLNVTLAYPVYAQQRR
Chain of recombinant human PI3Kγ ((aa144-1102)-6His) (P48736 144-1102): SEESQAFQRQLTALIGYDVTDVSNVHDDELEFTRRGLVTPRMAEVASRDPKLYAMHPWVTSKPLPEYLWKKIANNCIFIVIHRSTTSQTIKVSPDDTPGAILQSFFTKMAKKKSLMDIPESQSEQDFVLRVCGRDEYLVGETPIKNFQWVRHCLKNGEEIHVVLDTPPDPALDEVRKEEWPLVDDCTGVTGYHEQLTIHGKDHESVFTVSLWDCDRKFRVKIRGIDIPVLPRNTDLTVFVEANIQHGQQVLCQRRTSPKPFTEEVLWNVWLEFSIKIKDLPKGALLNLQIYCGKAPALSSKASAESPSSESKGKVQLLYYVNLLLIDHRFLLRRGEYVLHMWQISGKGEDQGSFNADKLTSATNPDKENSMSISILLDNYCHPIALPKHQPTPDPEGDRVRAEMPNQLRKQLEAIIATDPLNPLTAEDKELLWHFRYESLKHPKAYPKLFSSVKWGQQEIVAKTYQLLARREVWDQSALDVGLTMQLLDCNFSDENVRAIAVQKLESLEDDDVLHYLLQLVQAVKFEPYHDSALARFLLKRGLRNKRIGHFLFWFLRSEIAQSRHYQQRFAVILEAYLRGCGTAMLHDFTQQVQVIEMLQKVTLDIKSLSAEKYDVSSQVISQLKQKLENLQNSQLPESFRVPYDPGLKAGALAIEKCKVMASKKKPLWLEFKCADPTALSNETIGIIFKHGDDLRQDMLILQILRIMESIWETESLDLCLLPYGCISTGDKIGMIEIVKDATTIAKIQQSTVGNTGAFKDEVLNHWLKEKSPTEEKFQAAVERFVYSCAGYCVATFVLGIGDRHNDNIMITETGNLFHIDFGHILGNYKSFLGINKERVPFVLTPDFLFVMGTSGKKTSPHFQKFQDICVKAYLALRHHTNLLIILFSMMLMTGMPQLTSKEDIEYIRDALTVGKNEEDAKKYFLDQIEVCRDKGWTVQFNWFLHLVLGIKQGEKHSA
Chain of recombinant human PI3Kδ (6-His(p110-p85α)) (O00329 whole entry): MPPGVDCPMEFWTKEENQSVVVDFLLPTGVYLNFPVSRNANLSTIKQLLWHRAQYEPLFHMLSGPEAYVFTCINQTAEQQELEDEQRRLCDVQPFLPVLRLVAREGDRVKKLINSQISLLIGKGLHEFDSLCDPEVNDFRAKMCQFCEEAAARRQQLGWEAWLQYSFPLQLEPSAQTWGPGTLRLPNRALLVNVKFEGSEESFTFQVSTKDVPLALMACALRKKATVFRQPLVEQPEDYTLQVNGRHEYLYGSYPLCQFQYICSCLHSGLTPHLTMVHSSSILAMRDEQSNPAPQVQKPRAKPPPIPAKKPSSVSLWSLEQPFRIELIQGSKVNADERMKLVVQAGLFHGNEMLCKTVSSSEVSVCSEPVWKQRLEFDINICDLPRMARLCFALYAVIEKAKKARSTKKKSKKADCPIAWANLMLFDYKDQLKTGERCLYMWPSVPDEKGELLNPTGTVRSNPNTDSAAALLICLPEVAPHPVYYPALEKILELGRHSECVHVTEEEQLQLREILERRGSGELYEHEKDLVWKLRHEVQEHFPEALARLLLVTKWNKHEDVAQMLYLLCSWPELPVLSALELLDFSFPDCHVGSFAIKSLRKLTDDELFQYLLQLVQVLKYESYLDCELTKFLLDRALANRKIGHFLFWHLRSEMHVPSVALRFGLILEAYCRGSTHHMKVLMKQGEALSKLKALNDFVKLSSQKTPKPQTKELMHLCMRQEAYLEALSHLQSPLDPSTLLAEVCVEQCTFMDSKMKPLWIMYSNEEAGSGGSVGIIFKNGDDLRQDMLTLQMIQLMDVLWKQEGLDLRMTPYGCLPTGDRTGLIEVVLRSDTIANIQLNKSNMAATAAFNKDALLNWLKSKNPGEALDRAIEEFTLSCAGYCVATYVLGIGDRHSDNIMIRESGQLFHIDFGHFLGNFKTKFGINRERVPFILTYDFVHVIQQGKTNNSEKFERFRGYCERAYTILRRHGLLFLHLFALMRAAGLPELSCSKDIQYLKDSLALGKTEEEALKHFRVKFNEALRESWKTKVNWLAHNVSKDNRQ
Chain of recombinant human PI3Kδ (6-His(p110-p85α)) (P27986 whole entry partner): as the sequence (P27986 whole entry partner) above
Chain of recombinant human PI3Kβ (6-His(p110-p85α)) (P42338 whole entry): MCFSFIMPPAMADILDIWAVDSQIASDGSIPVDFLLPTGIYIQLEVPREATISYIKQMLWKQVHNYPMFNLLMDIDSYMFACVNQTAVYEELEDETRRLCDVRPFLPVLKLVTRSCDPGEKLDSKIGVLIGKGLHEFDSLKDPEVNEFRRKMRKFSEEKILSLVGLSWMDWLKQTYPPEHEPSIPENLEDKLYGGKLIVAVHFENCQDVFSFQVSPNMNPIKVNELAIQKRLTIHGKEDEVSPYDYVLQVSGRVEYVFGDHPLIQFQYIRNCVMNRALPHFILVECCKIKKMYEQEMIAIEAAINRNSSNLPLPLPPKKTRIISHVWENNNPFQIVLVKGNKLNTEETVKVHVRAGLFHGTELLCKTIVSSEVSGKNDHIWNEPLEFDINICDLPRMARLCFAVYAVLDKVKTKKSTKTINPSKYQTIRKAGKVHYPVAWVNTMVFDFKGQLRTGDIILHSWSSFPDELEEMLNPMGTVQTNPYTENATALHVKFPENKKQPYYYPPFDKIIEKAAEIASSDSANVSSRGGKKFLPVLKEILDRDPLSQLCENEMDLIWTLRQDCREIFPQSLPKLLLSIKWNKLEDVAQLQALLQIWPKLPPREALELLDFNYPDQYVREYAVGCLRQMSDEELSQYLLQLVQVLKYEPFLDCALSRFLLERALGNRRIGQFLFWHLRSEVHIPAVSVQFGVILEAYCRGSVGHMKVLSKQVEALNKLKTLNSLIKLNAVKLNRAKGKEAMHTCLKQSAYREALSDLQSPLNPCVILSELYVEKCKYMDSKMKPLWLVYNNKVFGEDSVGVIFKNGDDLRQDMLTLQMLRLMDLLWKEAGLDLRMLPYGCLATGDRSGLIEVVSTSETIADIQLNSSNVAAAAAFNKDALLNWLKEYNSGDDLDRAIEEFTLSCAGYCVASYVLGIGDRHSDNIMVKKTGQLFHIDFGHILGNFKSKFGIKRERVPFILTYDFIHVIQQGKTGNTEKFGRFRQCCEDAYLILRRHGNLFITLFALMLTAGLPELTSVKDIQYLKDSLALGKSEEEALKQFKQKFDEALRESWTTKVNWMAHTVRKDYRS
Chain of recombinant human PI3Kβ (6-His(p110-p85α)) (P27986 whole entry partner): as the sequence (P27986 whole entry partner) above

The term IC50 denotes the concentration that gives 50% inhibition. In the case of `CNS(=O)(=O)c1cc(-c2sc(Nc3cccc(N4CCN[C@H](C)C4=O)n3)nc2C)cc2c1C(=O)N([C@@H](C)C1CC1)C2` [Example 43, 2-[(1S)-1-Cyclopropylethyl]-N-methyl-6-[4-methyl-2-({6-[(3R)-3-methyl-2-oxopiperazin-1-yl]pyridin-2-yl}amino)-1,3-thiazol-5-yl]-3-oxo-2,3-dihydro-1H-isoindole-4-sulfonamide], the IC50 in test [1] came out at 1 nM; in test [2], 284 nM; in test [3], 1 nM; in test [4] it was 40 nM.
Turning to `CNS(=O)(=O)c1cc(-c2sc(Nc3cccc(N4CCN[C@@H](C)C4=O)n3)nc2C)cc2c1C(=O)N([C@@H](C)C1CC1)C2` [Example 44, 2-[(1S)-1-Cyclopropylethyl]-N-methyl-6-[4-methyl-2-({6-[(3S)-3-methyl-2-oxopiperazin-1-yl]pyridin-2-yl}amino)-1,3-thiazol-5-yl]-3-oxo-2,3-dihydro-1H-isoindole-4-sulfonamide], the IC50 in test [1] is 1.5 nM; in test [2], 518 nM; in test [3], 1.2 nM; in test [4], 72 nM.
Regarding `CNS(=O)(=O)c1cc(-c2sc(Nc3cccc(N4C[C@@H](C)NCC4=O)n3)nc2C)cc2c1C(=O)N([C@@H](C)C1CC1)C2` [Example 45, 2-[(1S)-1-Cyclopropylethyl]-N-methyl-6-[4-methyl-2-({6-[(5R)-5-methyl-2-oxopiperazin-1-yl]pyridin-2-yl}amino)-1,3-thiazol-5-yl]-3-oxo-2,3-dihydro-1H-isoindole-4-sulfonamide], the IC50 was 1 nM in test [1], 257 nM in test [2], 0.8 nM in test [3] and 33 nM in test [4].
The corresponding values for `CNS(=O)(=O)c1cc(-c2sc(Nc3cccc(N4C(=O)CNC[C@H]4C)n3)nc2C)cc2c1C(=O)N([C@@H](C)C1CC1)C2` [Example 46, 2-[(1S)-1-Cyclopropylethyl]-N-methyl-6-[4-methyl-2-({6-[(2R)-2-methyl-6-oxopiperazin-1-yl]pyridin-2-yl}amino)-1,3-thiazol-5-yl]-3-oxo-2,3-dihydro-1H-isoindole-4-sulfonamide] are 0.8 nM, 123 nM, 1 nM and 24 nM.
The corresponding values for `CNS(=O)(=O)c1cc(-c2sc(Nc3cccc(N4CCNC(C)(C)C4=O)n3)nc2C)cc2c1C(=O)N([C@@H](C)C1CC1)C2` [Example 47, 2-[(1S)-1-Cyclopropylethyl]-6-(2-{[6-(3,3-dimethyl-2-oxopiperazin-1-yl)pyridin-2-yl]amino}-4-methyl-1,3-thiazol-5-yl)-N-methyl-3-oxo-2,3-dihydro-1H-isoindole-4-sulfonamide] are 4.4 nM, 824 nM, 1.3 nM and 97 nM.
For `CNS(=O)(=O)c1cc(-c2sc(Nc3cccc(N4CC(C)(C)NCC4=O)n3)nc2C)cc2c1C(=O)N([C@@H](C)C1CC1)C2` [Example 48, 2-[(1S)-1-Cyclopropylethyl]-6-(2-{[6-(5,5-dimethyl-2-oxopiperazin-1-yl)pyridin-2-yl]amino}-4-methyl-1,3-thiazol-5-yl)-N-methyl-3-oxo-2,3-dihydro-1H-isoindole-4-sulfonamide], the IC50 was 0.7 nM in test [1], 199 nM in test [2], 1.5 nM in test [3] and 19 nM in test [4].
`CNS(=O)(=O)c1cc(-c2sc(Nc3cccc(N4C(=O)CNC[C@@H]4C)n3)nc2C)cc2c1C(=O)N([C@@H](C)C1CC1)C2` [Example 49, 2-[(1S)-1-Cyclopropylethyl]-N-methyl-6-[4-methyl-2-({6-[(2S)-2-methyl-6-oxopiperazin-1-yl]pyridin-2-yl}amino)-1,3-thiazol-5-yl]-3-oxo-2,3-dihydro-1H-isoindole-4-sulfonamide]: the IC50 in test [1] stood at 2.6 nM; in test [2] it was 800 nM; in test [3], 1.9 nM; in test [4], 87 nM.
